Data as given in patent US20060287383A1, “Substance exhibiting antidepressant property” (priority 2003, published 2006).

Legend:
white outbred male rats = test: involuntary swimming in a reservoir with freely moving wheels according to Nomura; assay type: in vivo
Protocol: The method of involuntary swimming in a reservoir with freely moving wheels (Nomura S., Shimizu J., Kinjo M. et al. A new behavioral test for antidepressant drugs//Eur. J. Pharmacol.—1982.—v. 83.—N 34.—p. 171-175) is widely used for assessing the action of antidepressant agents. The installation is a reservoir having dimensions of 64×30×42 cm and divided into four equal sections where wheels are located. The reservoir is filled with water at the temperature of 25° C., coming to the medium line of the wheels. The studies have been conducted with white outbred male rats having the weight from 230 to 250 grams. The rats have been put into each section in the position where their heads are opposite to the wheels, and then the wheel speed has been recorded for 10 minutes with the use of electromechanical counters. The number of wheel revolutions made by the rat for 10 minutes is recorded.
This study has been conducted with animals from different groups. The rats from the experimental groups have received single doses of phenotropyl in the amounts of 25, 50 and 100 mg/kg or the standard amitriptyline medication in the amount of 10 mg/kg (ampoule solution made by Spofa, the Czech Republic) in the volume corresponding to the dosage. The animals from the control group have received distilled water in the same dosage. All the substances have been given intragastrically 40 minutes before the an experiment.

[1] = tested on: patients having depressive illnesses; test: clinical study, Hamilton rating scale for depressive illness; assay type: in vivo, human
Protocol: The Hamilton rating scale for primary depressive illness (Hamilton M. Development of a rating scale for primary depressive illness//Br J Soc Clin Psychol. 1967 December;6(4):278-96) is one of the most widely used scales for assessing depression in the clinical practice.
The material for clinical studies has comprised two homogenous groups of patients having depressive illnesses (40 persons) aged 20-42, out of which 20 patients have taken amitriptyline in the daily dose of 75 mg (25 mg three times a day), and 20 patients have taken phenotropyl in the daily dose of 100 mg as a single dose in the morning time. For a comparative study of the medications antidepressant activity the patients have been enlisted for the study according to the following criteria: the informed consent is available, a light or moderate depressive episode (F32.0 ? F32.1 according to MCB-10) is present, the total score under the Hamilton rating scale is not lower than 18, no contraindications to taking amitriptyline and phenotropyl. The patients have been relatively uniformly assigned to the said groups according to meaningful factors, such as sex and age, time for which the condition exists and syndrome characteristics. The condition existence time varied from 1 to 2 years. The therapy efficiency has been assessed on the basis of a degree of reduction of the total score under the Hamilton scale, namely: full effect—reduction by more than 50%; partial reduction—from 25 to 50%; no effect—reduction by less than 25%. The condition of the patients has been assessed during the background studies and at each 7th day of the therapy for the whole 6 weeks of the therapy. In total, seven examinations have been carried out. The comparative data on the general efficiency pf the medications, as given in Table 5, evidence a rather quick reduction of the depressive illness psychopathological symptoms in the process of administering phenotropyl and amitriptyline. However, the antidepressant effect of phenotropyl has been more pronounced on the 7th and 14th days of the therapy. The full reduction has been attained in 25% and 40% of the patients, respectively. […] From the 28th day of the therapy the number of the patients experiencing the maximum effect has not been changed either on the 35th or the 42nd days of the therapy. Out of 20% of the patients experiencing a partial reduction of the depressive symptoms, 15% have been patients with the reduction from 25% to 50%, and 5%—patients with the reduction by less than 25%.

NC(=O)CN1CC(c2ccccc2)CC1=O (centres unmarked) [Phenotropyl, N-carbamoyl-methyl-4-phenyl-2-pyrrolidone]
Number of wheel revolutions for 10 minutes (white outbred male rats; single dose 25 mg/kg intragastrically 40 minutes before): 89.3 ± 17.2 | Number of wheel revolutions for 10 minutes (white outbred male rats; single dose 50 mg/kg intragastrically 40 minutes before): 102.7 ± 16.1 | Number of wheel revolutions for 10 minutes (white outbred male rats; single dose 100 mg/kg intragastrically 40 minutes before, 100 mg/kg): 121.8 ± 23.7 | Number of wheel revolutions for 10 minutes (white outbred male rats; single dose 100 mg/kg intragastrically 40 minutes before, listed as phenotropyl, 100 mg/kg): 121.8±23.7 | sedative and cholinergic effects ([1]; 100 mg daily, 6 weeks of therapy): no cases of sedative and cholinergic effects have been recorded | time at which full reduction is attained in 70% and 80% of the patients, compared with amitriptyline ([1]; 100 mg daily, 21st and 28th days of the therapy): two weeks earlier than for the amitriptyline therapy | patients (%) with reduction of total Hamilton score 25-49 ([1]; 7th therapy day, 100 mg daily): 25% | patients (%) with reduction of total Hamilton score <25 ([1]; 7th therapy day, 100 mg daily): 75% | patients (%) with reduction of total Hamilton score ≧50 ([1]; 7th therapy day, 100 mg daily): 0% | patients (n) with reduction of total Hamilton score 25-49 ([1]; 7th therapy day, 100 mg daily): 5 | patients (n) with reduction of total Hamilton score <25 ([1]; 7th therapy day, 100 mg daily): 15 | patients (n) with reduction of total Hamilton score ≧50 ([1]; 7th therapy day, 100 mg daily): 0 | patients (%) with reduction of total Hamilton score ≧50 ([1]; 7th therapy day, 100 mg daily, listed as phenotropyl): 25% | patients (%) with reduction of total Hamilton score 25-49 ([1]; 14th therapy day, 100 mg daily): 30% | patients (%) with reduction of total Hamilton score <25 ([1]; 14th therapy day, 100 mg daily): 30% | patients (%) with reduction of total Hamilton score ≧50 ([1]; 14th therapy day, 100 mg daily): 40% | patients (n) with reduction of total Hamilton score 25-49 ([1]; 14th therapy day, 100 mg daily): 6 | patients (n) with reduction of total Hamilton score <25 ([1]; 14th therapy day, 100 mg daily): 6 | patients (n) with reduction of total Hamilton score ≧50 ([1]; 14th therapy day, 100 mg daily): 8 | patients (%) with reduction of total Hamilton score 25-49 ([1]; 21st therapy day, 100 mg daily): 10% | patients (%) with reduction of total Hamilton score <25 ([1]; 21st therapy day, 100 mg daily): 20% | patients (%) with reduction of total Hamilton score ≧50 ([1]; 21st therapy day, 100 mg daily): 70% | patients (n) with reduction of total Hamilton score 25-49 ([1]; 21st therapy day, 100 mg daily): 2 | patients (n) with reduction of total Hamilton score <25 ([1]; 21st therapy day, 100 mg daily): 4 | patients (n) with reduction of total Hamilton score ≧50 ([1]; 21st therapy day, 100 mg daily): 14 | patients (%) with reduction of total Hamilton score 25-49 ([1]; 28th therapy day, 100 mg daily): 15% | patients (%) with reduction of total Hamilton score <25 ([1]; 28th therapy day, 100 mg daily): 5% | patients (%) with reduction of total Hamilton score ≧50 ([1]; 28th therapy day, 100 mg daily): 80% | patients (n) with reduction of total Hamilton score 25-49 ([1]; 28th therapy day, 100 mg daily): 3 | patients (n) with reduction of total Hamilton score <25 ([1]; 28th therapy day, 100 mg daily): 1 | patients (n) with reduction of total Hamilton score ≧50 ([1]; 28th therapy day, 100 mg daily): 16 | patients (%) with reduction of total Hamilton score 25-49 ([1]; 35th therapy day, 100 mg daily): 15% | patients (%) with reduction of total Hamilton score <25 ([1]; 35th therapy day, 100 mg daily): 5% | patients (%) with reduction of total Hamilton score ≧50 ([1]; 35th therapy day, 100 mg daily): 80% | patients (n) with reduction of total Hamilton score 25-49 ([1]; 35th therapy day, 100 mg daily): 3 | patients (n) with reduction of total Hamilton score <25 ([1]; 35th therapy day, 100 mg daily): 1 | patients (n) with reduction of total Hamilton score ≧50 ([1]; 35th therapy day, 100 mg daily): 16 | patients (%) with reduction of total Hamilton score 25-49 ([1]; 42nd therapy day, 100 mg daily): 15% | patients (%) with reduction of total Hamilton score <25 ([1]; 42nd therapy day, 100 mg daily): 5% | patients (%) with reduction of total Hamilton score ≧50 ([1]; 42nd therapy day, 100 mg daily): 80% | patients (n) with reduction of total Hamilton score 25-49 ([1]; 42nd therapy day, 100 mg daily): 3 | patients (n) with reduction of total Hamilton score <25 ([1]; 42nd therapy day, 100 mg daily): 1 | patients (n) with reduction of total Hamilton score ≧50 ([1]; 42nd therapy day, 100 mg daily): 16 | tolerance and withdrawal syndrome ([1]; course administration): does not induce tolerance and the withdrawal syndrome
